Measured values taken from ChEMBL document CHEMBL1649332, “Update on fusidic acid (CEM-102) tested against Neisseria gonorrhoeae and Chlamydia trachomatis” (Antimicrob Agents Chemother, 2010).
In brackets after ≈: the same amount, converted by molar mass. Activity calls are given as the source filed them. The calls are words filed in the database; no cut-off is given here.

Experiments:
Neisseria gonorrhoeae [1] = test: Antimicrobial activity against Neisseria gonorrhoeae assessed as susceptible isolates by EUCAST method; format: functional
Neisseria gonorrhoeae [2] = test: Antimicrobial activity against Neisseria gonorrhoeae assessed as resistant isolates by EUCAST method; format: functional
Neisseria gonorrhoeae [3] = test: Antimicrobial activity against Neisseria gonorrhoeae isolates by CLSI agar dilution method; format: functional
Chlamydia trachomatis = test: Antimicrobial activity against Chlamydia trachomatis isolates; format: functional; conditions: for MBC / MIC90: Chlamydia trachomatis
Neisseria gonorrhoeae [4] = test: Antimicrobial activity against Neisseria gonorrhoeae assessed as susceptible isolates by CLSI method; format: functional
Neisseria gonorrhoeae [5] = test: Antimicrobial activity against Neisseria gonorrhoeae isolates up to 2 ug/ml by CLSI agar dilution method; format: functional, organism-based
Plasma = test: Trough plasma concentration in human; format: ADME, cell-free
Neisseria gonorrhoeae [6] = test: Antimicrobial activity against Neisseria gonorrhoeae assessed as resistant isolates by CLSI method; format: functional

Row | Compound | Activity (Neisseria gonorrhoeae [1]) | Activity (Neisseria gonorrhoeae [2]) | MIC50 (Neisseria gonorrhoeae [3]) | MBC90 (Chlamydia trachomatis) | MBC (Chlamydia trachomatis) | MIC90 (Chlamydia trachomatis) | Activity (Neisseria gonorrhoeae [4]) | MIC90 (Neisseria gonorrhoeae [3]) | Activity (Neisseria gonorrhoeae [5]) | Cmin (Plasma) | Activity (Neisseria gonorrhoeae [6])
1 | CC[C@H]1OC(=O)[C@H](C)[C@@H](O[C@H]2C[C@@](C)(OC)[C@@H](O)[C@H](C)O2)[C@H](C)[C@@H](O[C@@H]2O[C@H](C)C[C@H](N(C)C)[C@H]2O)[C@](C)(O)C[C@@H](C)CN(C)[C@H](C)[C@@H](O)[C@]1(C)O [AZITHROMYCIN] | 80% | 5.7% | 0.25 µg/mL (≈ 0.334 µM) | 0.12 µg/mL (≈ 0.16 µM) | 0.015 µg/mL (≈ 0.02 µM) | 0.12 µg/mL (≈ 0.16 µM) |  |  |  |  | 
2 | CO/N=C(\C(=O)N[C@@H]1C(=O)N2C(C(=O)O)=C(CSc3nc(=O)c(O)nn3C)CS[C@H]12)c1csc(N)n1 [CEFTRIAXONE] | 100% | 0% |  |  |  |  | 100% |  |  |  | 
3 | CC[C@H]1OC(=O)[C@H](C)[C@@H](O[C@H]2C[C@@](C)(OC)[C@@H](O)[C@H](C)O2)[C@H](C)[C@@H](O[C@@H]2O[C@H](C)C[C@H](N(C)C)[C@H]2O)[C@](C)(OC)C[C@@H](C)C(=O)[C@H](C)[C@@H](O)[C@]1(C)O [CLARITHROMYCIN] |  |  |  | 0.06 µg/mL (≈ 0.0802 µM) | 0.015 µg/mL (≈ 0.0201 µM) | 0.06 µg/mL (≈ 0.0802 µM) |  |  |  |  | 
4 | C[C@H]1c2cccc(O)c2C(=O)C2=C(O)[C@]3(O)C(=O)C(C(N)=O)=C(O)[C@@H](N(C)C)[C@@H]3[C@@H](O)[C@@H]21.O [DOXYCYCLINE] |  |  |  | 0.06 µg/mL | 0.015 µg/mL | 0.06 µg/mL |  |  |  |  | 
5 | CC(=O)O[C@H]1C[C@@]2(C)[C@@H](C[C@@H](O)[C@H]3[C@@]4(C)CC[C@@H](O)[C@@H](C)[C@@H]4CC[C@@]32C)/C1=C(\CCC=C(C)C)C(=O)O [FUSIDIC ACID] |  |  | 0.5 µg/mL (≈ 0.968 µM) | 0.5 µg/mL (≈ 0.968 µM) | 0.12 µg/mL (≈ 0.232 µM) | 0.5 µg/mL (≈ 0.968 µM) |  | 1 µg/mL (≈ 1.94 µM) | Active | 80 µg/mL | 
6 | CC1(C)S[C@@H]2[C@H](NC(=O)Cc3ccccc3)C(=O)N2[C@H]1C(=O)O [PENICILLIN G] | 22.9% | 45.7% | 1 µg/mL (≈ 2.99 µM) |  |  |  | 22.9% |  |  |  | 45.7%
7 | CC[C@H]1OC(=O)[C@H](C)C(=O)[C@H](C)[C@@H](O[C@@H]2O[C@H](C)C[C@H](N(C)C)[C@H]2O)[C@](C)(OC)C[C@@H](C)C(=O)[C@H](C)[C@H]2N(CCCCn3cnc(-c4cccnc4)c3)C(=O)O[C@]12C [TELITHROMYCIN] |  |  |  | 0.06 µg/mL (≈ 0.0739 µM) | 0.015 µg/mL (≈ 0.0185 µM) | 0.06 µg/mL (≈ 0.0739 µM) |  |  |  |  | 
8 | CN(C)[C@@H]1C(O)=C(C(N)=O)C(=O)[C@@]2(O)C(O)=C3C(=O)c4c(O)cccc4[C@@](C)(O)[C@H]3C[C@@H]12 [TETRACYCLINE] | 45.7% | 34.3% | 1 µg/mL (≈ 2.25 µM) |  |  |  | 22.9% |  |  |  | 34.3%
